Reference: publication PMC6916368, “Cell‐Based Optimization of Covalent Reversible Ketoamide Inhibitors Bridging the Unprimed to the Primed Site of the Proteasome β5 Subunit” (Chemmedchem, 2019)

Legend:
[1] = target: T1, β2c subunit of isolated human 20S proteasome (Homo sapiens, UniProt Q99436); assay: Proteasome inhibition assay (20 S Proteasome Assay Kit, Bz‐VGR‐AMC); type: biochemical; conditions: c = 1 µM, n=1; read-out: Inhibition cCP β2
T1 construct: purchased Enzo Life Sciences
In short: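 Isolated 20S proteasome (200 ng/well) was preincubated 30 min with inhibitor, then Bz-VGR-AMC (100 μM final) was added for 60 min and fluorescence read. Single-point residual activity was taken at 100 nM or 1 μM; IC50 was fitted from duplicates, mean of three independent experiments.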

Danio rerio embryos [2] = assay: Danio rerio escape response (neurotoxicity) assay, dechorionated embryos; type: in vivo; conditions: for Survived (embryos of 4): dechorionated
Procedure: Danio rerio escape response assay. 24 hours past fertilization embryos were dechorionated and transferred into 96‐well plates containing 198 μL of E3 media at 26 °C. […] Incubation times were 24 h, 48 h and 72 h. Survival of the embryos was determined by visual analysis of heart‐beat. For recording the touch evoked escape response, embryos were transferred to a microscopy slide with cavity that is placed on a SL‐300 LED Soft Light (Dörr, Neu‐Ulm, Germany) under a MotionBlitz EoSens mini1‐1 MC1370 high speed camera (Mikrotron, Unterschleißheim, Germany, Figure S18). An escape response was triggered by a touch stimulus at the trunk of embryos using a small sewing needle, which is slightly blunted. For each embryo, a maximum of 50 stimuli was applied. […] No escape response was determined if only one embryo was alive at 96 hpf. Movement was recorded at 96 hpf at 500 frames per second for 3 seconds using the MotionBlitzDirector 2 software. Determination of the amplitude α defined by the body angle spanned between the head, yolk and tail using a MATLAB‐based software tool and plotted using GraphPad Prism 7.02.

[3] = target: T2, β5c subunit of isolated human 20S proteasome (Homo sapiens, UniProt P28074); assay: Proteasome inhibition assay (20 S Proteasome Assay Kit, Suc‐LLVY‐AMC); type: biochemical
T2 construct: purchased Enzo Life Sciences
In short: (§1)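 Isolated human 20S proteasome (200 ng/well) preincubated 30 min with inhibitor, then 100 μM final Suc-LLVY-AMC (β5c, β5i) or Z-LLE-AMC (β1c) added for 60 min; fluorescence read. Residual activity at 100 nM final (n=3; β5c, β5i) or 1 μM (n=1, incl. β1c). IC50s: technical duplicates, mean of three experiments.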

[4] = target: T3, β5i subunit of isolated human 20S proteasome (Homo sapiens, UniProt P28062); assay: as above; type: biochemical
T3 construct: purchased Enzo Life Sciences
In short: as §1

[5] = target: T4, β1c subunit of isolated human 20S proteasome (Homo sapiens, UniProt P28072); assay: Proteasome inhibition assay (20 S Proteasome Assay Kit, Z‐LLE‐AMC); type: biochemical; conditions: c = 1 µM, n=1; read-out: Inhibition cCP β1
T4 construct: purchased Enzo Life Sciences
In short: as §1

in vitro = type: cell-based; conditions: human
Procedure: Remarkably, in THP‐1 cells the initial cytotoxicity is increasing for 3 compared to 27 until 14 h treatment (9‐fold) but is approaching to the end of the assay.
Time‐dependent determination of cell viability. For the determination of time‐dependent cytotoxic activity 5.000 cells per well were plated in a white 384 well‐plate in RPMI‐1640 medium supplemented with 0.1 % FBS. Real‐Time Glo MT cell viability assay (Promega) and inhibitor were added to the final concentration and luminescence was determined using a Tecan M1000 microplate reader at the time points indicated (SI chapter 2b, Figure S9–S17, Table S2).

Danio rerio embryos [6] = assay: Danio rerio embryo toxicity assay (not dechorionated); type: in vivo
Procedure: Danio rerio embryo toxicity assay. Fish keeping protocols are approved by the Darmstadt administrative authority and documented. All fish were treated humanely. […] Embryos were decollated into separate wells containing a total volume of 200 μL and the inhibitor at the given concentration.

[7] = Danio rerio (zebrafish) embryos, in vivo
[8] = Danio rerio (zebrafish) embryos, in vivo, 24 h, 25 μM
[9] = Danio rerio (zebrafish) embryos, in vivo, 24 h, 50 µM
[10] = Danio rerio (zebrafish) embryos, in vivo, 48 h, 25 μM
[11] = Danio rerio, in vivo, 24 h, 25 µM
[12] = Danio rerio, in vivo, 24 h, 50 µM
[13] = Danio rerio, in vivo, 48 h, 25 µM

Structure (SMILES): Cc1cc(C)c(Oc2ccccc2)cc1NC(=O)C(=O)[C@H](CC(C)C)NC(=O)[C@H](CC(C)C)NC(=O)[C@H](CC(C)C)NC(=O)c1cc(Cl)ccc1Cl [Compound 27, 2,5‐Dichloro‐N‐((S)‐1‐(((S)‐1‐(((S)‐1‐((2,4‐dimethyl‐5‐phenoxyphenyl)amino)‐5‐methyl‐1,2‐dioxo‐hexan‐3‐yl)amino)‐4‐methyl‐1‐oxopentan‐2‐yl)amino)‐4‐methyl‐1‐oxopentan‐2‐yl)benzamide]
- inhibition at 1 µM [1]: 6%
- Fold-response (Danio rerio embryos [2]; [7]): 29
- Relative reflexes / Stimuli, Mean (Danio rerio embryos [2]; [7]): 0,81
- Number of movements per 100 ms, Difference between means (Danio rerio embryos [2]; [8]): 0,4767 ± 0,4422
- Reflex Duration (Danio rerio embryos [2]; [8]): 295,3 ± 28,5 ms
- Relative reflexes / Stimuli (Danio rerio embryos [2]; [8]): 1,000
- mean reflexes per stimuli (Danio rerio embryos [2]; [8]): 100%
- C-Bend Duration (Danio rerio embryos [2]; [9]): 19,2 ± 2,2 ms
- Number of movements per 100 ms, Difference between means (Danio rerio embryos [2]; [9]): 0,4019 ± 0,4349
- Number of total movements, Difference between means (Danio rerio embryos [2]; [9]): 16,56 ± 4,371
- Relative reflexes / Stimuli (Danio rerio embryos [2]; [9]): 1,000
- mean reflexes per stimuli (Danio rerio embryos [2]; [9]): 100%
- Number of movements per 100 ms, Difference between means (Danio rerio embryos [2]; [10]): 0,545 ± 0,4127
- Reflex Duration (Danio rerio embryos [2]; [10]): 403,6 ± 30,9 ms
- Relative reflexes / Stimuli (Danio rerio embryos [2]; [10]): 0,545
- mean reflexes per stimuli (Danio rerio embryos [2]; [10]): 55%
- C-Bend Amplitude, Difference between means (Danio rerio embryos [2]; [11]): - 2,833 ± 19,93
- C-Bend Duration (Danio rerio embryos [2]; [11]): 14 ± 0,8165 ms
- C-Bend duration, Difference between means (Danio rerio embryos [2]; [11]): -5,667 ± 1,826
- Number of total movements, Difference between means (Danio rerio embryos [2]; [11]): - 2,611 ± 3,6
- Reflex Duration (Danio rerio embryos [2]; [11]): 295,3 ± 28,53 ms
- Reflex Duration, Difference between means (Danio rerio embryos [2]; [11]): - 95,33 ± 66,93
- C-Bend Amplitude, Difference between means (Danio rerio embryos [2]; [12]): - 7,333 ± 15,18
- C-Bend Duration (Danio rerio embryos [2]; [12]): 19,17 ± 2,212 ms
- C-Bend duration, Difference between means (Danio rerio embryos [2]; [12]): - 0,5 ± 2,458
- Reflex Duration (Danio rerio embryos [2]; [12]): 799 ± 91,81 ms
- Reflex Duration, Difference between means (Danio rerio embryos [2]; [12]): 408,3 ± 96,75
- C-Bend Amplitude, Difference between means (Danio rerio embryos [2]; [13]): - 9,167 ± 17,34
- C-Bend Duration (Danio rerio embryos [2]; [13]): 15,56 ± 0,5031 ms
- C-Bend duration, Difference between means (Danio rerio embryos [2]; [13]): -4,111 ± 1,464
- Number of total movements, Difference between means (Danio rerio embryos [2]; [13]): 1,889 ± 3,151
- Reflex Duration (Danio rerio embryos [2]; [13]): 403,6 ± 30,92 ms
- Reflex Duration, Difference between means (Danio rerio embryos [2]; [13]): 12,89 ± 59,4
- overall survival at low doses (Danio rerio embryos [2]; dechorionated embryos): 58%
- Survived (embryos of 4) (Danio rerio embryos [2]; 25 µM, 24 h): 2
- Survived (embryos of 4) (Danio rerio embryos [2]; 25 µM, 48 h): 2
- Survived (embryos of 4) (Danio rerio embryos [2]; 50 µM, 24 h): 3
- inhibition at 1 µM ([3]; c = 1 µM, n=1, read-out: Inhibition cCP β5): 91%
- inhibition at 0.1 µM ([3]; c=100 nM, read-out: Rel. Inhibition β5c): 83%
- IC50 ([3]; purified proteasome): 23 nM
- Fold‐IC50 β5i/β5c ([3]; selectivity β5c over β5i): 4.2
- inhibition at 1 µM ([4]; c = 1 µM, n=1, read-out: Inhibition iCP β5): 68%
- inhibition at 0.1 µM ([4]; c=100 nM, read-out: Rel. Inhibition β5i): 58%
- IC50 ([4]; purified proteasome): 96 nM
- inhibition at 1 µM [5]: -48%
- IC50 at 13 h (in vitro): 300 to 600 nM
- Survival of embryos (not dechorionated) (Danio rerio embryos [6]; 1 µM, 24 h): 100%
- Survival of embryos (not dechorionated) (Danio rerio embryos [6]; 1 µM, 48 h): 100%
- Survival of embryos (not dechorionated) (Danio rerio embryos [6]; 1 µM, 72 h): 100%
- Survival of embryos (not dechorionated) (Danio rerio embryos [6]; 1 µM, 96 h): 100%
- Survival of embryos (not dechorionated) (Danio rerio embryos [6]; 5 µM, 24 h): 100%
- Survival of embryos (not dechorionated) (Danio rerio embryos [6]; 5 µM, 48 h): 100%
- Survival of embryos (not dechorionated) (Danio rerio embryos [6]; 5 µM, 72 h): 100%
- Survival of embryos (not dechorionated) (Danio rerio embryos [6]; 5 µM, 96 h): 100%
- Survival of embryos (not dechorionated) (Danio rerio embryos [6]; 10 µM, 24 h): 100%
- Survival of embryos (not dechorionated) (Danio rerio embryos [6]; 10 µM, 48 h): 100%
- Survival of embryos (not dechorionated) (Danio rerio embryos [6]; 10 µM, 72 h): 100%
- Survival of embryos (not dechorionated) (Danio rerio embryos [6]; 10 µM, 96 h): 100%
- Survival of embryos (not dechorionated) (Danio rerio embryos [6]; 25 µM, 24 h): 100%
- Survival of embryos (not dechorionated) (Danio rerio embryos [6]; 25 µM, 48 h): 100%
- Survival of embryos (not dechorionated) (Danio rerio embryos [6]; 25 µM, 72 h): 100%
- Survival of embryos (not dechorionated) (Danio rerio embryos [6]; 25 µM, 96 h): 100%
